Source: patent publication US8257921B1, “NRIP1 regulation of apolipoprotein A1” (Schering Corporation, priority 2008, dated 2012)

Key:
[1] = tested on: apoA1 mRNA; conditions: HepG2 cells; Haghpassand et al. 1995; cited from earlier work
[2] = tested on: apoA1 mRNA; assay: apoA1 mRNA by RT-qPCR in transfected HepG2 cells; type: cell-based, human; conditions: for apoA1 mRNA levels: individual NRIP1 Dicer substrate dsiRNA duplexes (FIG. 8)
Excerpt: Pools of siRNAs that were targeted to NRIP1 (#27) and 32 other transcription modulators were transfected into cultured HepG2 cell along with experimental controls apoA1 siRNA (siApoA1), siRNA non-targeting control (siNT) and transfection media without siRNA (HepG2). […] Each siRNA was designed and synthesized by Dharmacon to interact in a sequence specific manner with the target mRNA and suppress gene expression. For NRIP1, the following siRNA duplexes were used based on the NRIP1 sequence found under GenBank Accession no. NM_173440.
Cultured human hepatoma cell line HepG2 cells were seeded in 6-well plates at a density of 4E5 (i.e., 4×10^5) cells/well in antibiotic free 10% FBS/MEME and cultured for 16 hours. siRNA (20 μM) was prepared by diluting to 2 μM with buffer. To that, equal amounts Opti-MEM medium was added, mixed and kept at room temperature (RT) for 5 minutes. Transfection lipid was prepared using DharmaFECT 4 transfection reagent X25 times diluted with Opti-MEM medium (4 μL/100 medium), mixed and kept at RT for 5 minutes. siRNA and transfection lipid were complexed by mixing equal volumes and incubated for 20 minutes at RT. […]
Forty-eight hours post transfection, medium was removed from transfected HepG2 culture and assessed for secreted apoA1 levels using a human apoA1 sandwich ELISA (MabTech) as described by the manufacturer. […]
HepG2 cells were transfected with varying concentrations of pooled NRIP1 siRNA as described in Example 1, except that 24 hours post transfection 10 μM 9 cis-retinoic acid was added to the growth medium. Cells were harvested 24 hours later and apoA1 and NRIP1 mRNA levels measured as previously described. […]
HepG2 cells were transfected with four individual NRIP1 siRNA duplexes at a concentration of 100 nM or a pool of all four siRNAs at a final concentration 100 nM following the protocol previously described. […] In FIG. 6, expression levels of NRIP1 gene expression were similarly evaluated. […]

[3] = tested on: NRIP1 target mRNA; assay: NRIP1 mRNA by RT-qPCR in transfected HepG2 cells; type: cell-based, human; conditions: for NRIP1 gene expression (suppression): individual siRNA duplexes 100 nM, vs siNT and lipid controls (FIG. 6); for NRIP1 target gene expression, dose response: 4-fold dilutions from 100 nM to 1.56 nM (FIG. 7)
Description: Cultured human hepatoma cell line HepG2 cells were seeded in 6-well plates at a density of 4E5 (i.e., 4×10^5) cells/well in antibiotic free 10% FBS/MEME and cultured for 16 hours. siRNA (20 μM) was prepared by diluting to 2 μM with buffer. To that, equal amounts Opti-MEM medium was added, mixed and kept at room temperature (RT) for 5 minutes. Transfection lipid was prepared using DharmaFECT 4 transfection reagent X25 times diluted with Opti-MEM medium (4 μL/100 medium), mixed and kept at RT for 5 minutes. siRNA and transfection lipid were complexed by mixing equal volumes and incubated for 20 minutes at RT. Cultured HepG2 cells in 6-sell plates were changed into fresh antibiotic free 10% FBS/MEME (1.6 mL/well) and 400 complexed siRNA was added to each well to a final concentration of 100 nM and incubated for 48 hrs.
HepG2 cells were transfected with varying concentrations of pooled NRIP1 siRNA as described in Example 1, except that 24 hours post transfection 10 μM 9 cis-retinoic acid was added to the growth medium. Cells were harvested 24 hours later and apoA1 and NRIP1 mRNA levels measured as previously described. RT-qPCR was performed as described (Zhu et al., Analytical Biochemistry 345:102-109 (2005)) using the following NRIP1 specific primer/probes:
HepG2 cells were transfected with four individual NRIP1 siRNA duplexes at a concentration of 100 nM or a pool of all four siRNAs at a final concentration 100 nM following the protocol previously described. Following isolation of total RNA, RT-qPCR was performed for apoA1 and NRIP1 gene expression. FIG. 5 compared apoA1 mRNA gene expression for siRNA samples to the siNT and lipid controls. In FIG. 6, expression levels of NRIP1 gene expression were similarly evaluated.
The differential effectiveness of individual sequence specific RNAi molecules to inhibit gene expression is well documented (Soutschek et al., Nature 432: 173-178 (2004)). […] The NRIP1 siRNA #5 and #8 were compare using 4-fold dilutions from 100 nM to 1.56 nM.

Molecule	apoA1 mRNA levels [2]	NRIP1 gene expression (suppression) [3]	NRIP1 target gene expression, dose response [3]	further results
CC1=C(/C=C/C(C)=C\C=C\C(C)=C\C(=O)O)C(C)(C)CCC1 [9CRA, 9-cis retinoic acid]				endogenous apoA1 gene expression [1]: stimulates
dsi#27-1: NRIP1 Dicer substrate RNAi duplex (IDT): sense 5′-AGACUAUACCUAAGCCAAUGAAUGG, antisense 5′-CCAUUCAUUGGCUUAGGAUAGUCUGG	elevated			
dsi#27-2: NRIP1 Dicer substrate RNAi duplex (IDT): sense 5′-AGGAGUCACAGAAAUAAUGAAAUGG, antisense 5′-CCAUUUCAUUAUUUCUGUGACUCCUGU	elevated			
oligo #7: NRIP1 siRNA duplex: sense GGACUGGAAUGCAGCAAAGUU (SEQ ID NO: 14), antisense 5′P-CUUUGCUGCAUUCCAGUCCUU (SEQ ID NO: 15) (5' phosphate on antisense, further chemistry not given here)		least effective		apoA1 mRNA gene expression (induction) ([2]; individual siRNA duplexes 100 nM, vs siNT and lipid controls (FIG. 5)): least effective
siRNA #5: NRIP1 siRNA duplex: sense GAAGCGUGCUAACGAUAAAUU (SEQ ID NO: 7), antisense 5′P-UUUAUCGUUAGCACGCUUCUU (SEQ ID NO: 12) (5' phosphate on antisense strand, further chemistry not given here)		most effective	inhibited better by siRNA #8 over siRNA #5	
siRNA #8: NRIP1 siRNA duplex: sense AUACGAAUCUUCCUGAUGUUU (SEQ ID NO: 9), antisense 5′P-ACAUCAGGAAGAUUCGUAUUU (SEQ ID NO: 16) (5' phosphate on antisense strand, further chemistry not given here)		most effective	inhibited better	
